{"source": "ChEMBL document CHEMBL6153028", "about": "“Understanding the synergistic sensitization of natural products and antibiotics: An effective strategy to combat MRSA” (2025)", "assay_type_in_all_cases": "functional", "key": {"Staphylococcus aureus [1]": {"system": "Staphylococcus aureus", "assay": "Synergistic antimicrobial activity against methicillin resistant Staphylococcus aureus 43300 assessed as fractional inhibitory concentration index incubated for 24 hrs in presence of norfloxacin by checkerboard assay"}, "Staphylococcus aureus [2]": {"system": "Staphylococcus aureus", "assay": "Synergistic antimicrobial activity against methicillin resistant Staphylococcus aureus assessed as fractional inhibitory concentration index incubated for 24 hrs in presence of Oxacillin by checkerboard assay"}, "Staphylococcus aureus [3]": {"system": "Staphylococcus aureus", "assay": "Synergistic antimicrobial activity against methicillin-resistant Staphylococcus aureus assessed as fractional inhibitory concentration index in presence of gentamicin by checkerboard assay"}, "Staphylococcus aureus [4]": {"system": "Staphylococcus aureus", "assay": "Synergistic antibacterial activity against Staphylococcus aureus assessed as fractional inhibitory concentration index incubated for 24 hrs in presence of ampicillin by checkerboard assay"}, "Staphylococcus aureus [5]": {"system": "Staphylococcus aureus", "assay": "Synergistic antimicrobial activity against methicillin resistant Staphylococcus aureus assessed as fractional inhibitory concentration index incubated for 24 hrs in presence of Norfloxacin by checkerboard assay"}, "Staphylococcus aureus [6]": {"system": "Staphylococcus aureus", "assay": "Synergistic antimicrobial activity against methicillin resistant Staphylococcus aureus 43300 assessed as fractional inhibitory concentration index incubated for 24 hrs in presence of Penicillin by checkerboard assay"}, "Staphylococcus aureus [7]": {"system": "Staphylococcus aureus", "assay": "Synergistic antimicrobial activity against methicillin resistant Staphylococcus aureus 43300 assessed as fractional inhibitory concentration index incubated for 24 hrs in presence of Vancomycin by checkerboard assay"}, "Staphylococcus aureus [8]": {"system": "Staphylococcus aureus", "assay": "Synergistic antibacterial activity against methicillin-resistant Staphylococcus aureus 4806 assessed as fractional inhibitory concentration index incubated for 24 hrs in presence of ampicillin by checkerboard assay"}, "Staphylococcus aureus [9]": {"system": "Staphylococcus aureus", "assay": "Synergistic antibacterial activity against methicillin-resistant Staphylococcus aureus assessed as fractional inhibitory concentration index incubated for 24 hrs in presence of ampicillin by checkerboard assay"}, "Staphylococcus aureus [10]": {"system": "Staphylococcus aureus", "assay": "Synergistic antibacterial activity against methicillin-resistant Staphylococcus aureus assessed as fractional inhibitory concentration index incubated for 24 hrs in presence of cefazolin by checkerboard assay"}, "Staphylococcus aureus [11]": {"system": "Staphylococcus aureus", "assay": "Synergistic antibacterial activity against methicillin resistant Staphylococcus aureus assessed as fractional inhibitory concentration index in presence of oxacillin incubated for 24 hrs by checkerboard assay"}, "Staphylococcus aureus [12]": {"system": "Staphylococcus aureus", "assay": "Synergistic antibacterial activity against methicillin resistant Staphylococcus aureus assessed as fractional inhibitory concentration index in presence of kanamycin incubated for 24 hrs by checkerboard assay"}, "Staphylococcus aureus [13]": {"system": "Staphylococcus aureus", "assay": "Synergistic antibacterial activity against methicillin-resistant Staphylococcus aureus assessed as fractional inhibitory concentration index in presence of azithromycin"}, "Staphylococcus aureus [14]": {"system": "Staphylococcus aureus", "assay": "Synergistic antibacterial activity against methicillin resistant Staphylococcus aureus assessed as fractional inhibitory concentration index incubated for 24 hrs in presence of levofloxacin by broth microdilution checkboard assay"}, "Staphylococcus aureus [15]": {"system": "Staphylococcus aureus", "assay": "Synergistic antibacterial activity against methicillin-resistant Staphylococcus aureus assessed as fractional inhibitory concentration index incubated for 24 hrs in presence of fusidic acid by checkerboard assay"}, "Staphylococcus aureus [16]": {"system": "Staphylococcus aureus", "assay": "Synergistic antimicrobial activity against methicillin-resistant Staphylococcus aureus assessed as fractional inhibitory concentration index in presence of vancomycin by checkerboard assay"}, "Staphylococcus aureus [17]": {"system": "Staphylococcus aureus", "assay": "Synergistic antimicrobial activity against methicillin-resistant Staphylococcus aureus assessed as fractional inhibitory concentration index in presence of gentamicin incubated for 24 hrs by checkerboard assay"}}}
{"molecule": "COc1cc2c(cc1O)CC[n+]1cc3c(OC)c(OC)ccc3cc1-2.[I-]", "values": [{"measurement": "fractional inhibitory concentration index (FICI)", "setting": "Staphylococcus aureus [1]", "value": 0.375}]}
{"molecule": "COc1cc(C)c2c(c1C)OC(=O)c1c(C)c(Cl)c(O)c(C=O)c1O2", "values": [{"measurement": "fractional inhibitory concentration index (FICI)", "setting": "Staphylococcus aureus [2]", "value": 0.312}, {"measurement": "fractional inhibitory concentration index (FICI)", "setting": "Staphylococcus aureus [3]", "value": 0.25}]}
{"molecule": "COc1ccc2c(c1OC)C(CC(C)=O)N(C)c1c-2ccc2cc3c(cc12)OCO3", "note": "(stereo not drawn)", "values": [{"measurement": "fractional inhibitory concentration index (FICI)", "setting": "Staphylococcus aureus [4]", "value": 0.5}]}
{"molecule": "CC1=CCC[C@@H]2[C@@](C)(C[C@H](O)C3=CC(=O)OC3O)[C@H](C)CC[C@@]12C", "note": "(stereo partly drawn)", "values": [{"measurement": "fractional inhibitory concentration index (FICI)", "setting": "Staphylococcus aureus [2]", "value": 0.125}]}
{"molecule": "C[C@@H]1O[C@@H](O[C@H]2[C@H](O[C@H]3CC[C@]4(C)[C@H]5CC=C6[C@@H]7CC(C)(C)CC[C@]7(C(=O)O)CC[C@@]6(C)[C@]5(C)CC[C@H]4C3(C)C)OC[C@H](O)[C@@H]2O)[C@H](O)[C@H](O)[C@H]1O", "values": [{"measurement": "fractional inhibitory concentration index (FICI)", "setting": "Staphylococcus aureus [2]", "value": 0.28}]}
{"molecule": "O=C(OCC1O[C@H](OC(=O)c2cc(O)c(O)c(O)c2)[C@@H](O)[C@H](OC(=O)c2cc(O)c(O)c(O)c2)[C@H]1O)c1cc(O)c(O)c(O)c1", "note": "(stereo partly drawn)", "values": [{"measurement": "fractional inhibitory concentration index (FICI)", "setting": "Staphylococcus aureus [5]", "value": 0.31}, {"measurement": "fractional inhibitory concentration index (FICI)", "setting": "Staphylococcus aureus [2]", "value": "<0.5"}]}
{"molecule": "C[C@H]1C2CCC3[C@@H]4CC=C5CC(N(C)C)CC[C@]5(C)[C@H]4CC[C@@]32CN1C=O", "note": "(stereo partly drawn)", "values": [{"measurement": "fractional inhibitory concentration index (FICI)", "setting": "Staphylococcus aureus [6]", "value": 0.116}, {"measurement": "fractional inhibitory concentration index (FICI)", "setting": "Staphylococcus aureus [7]", "value": 0.502}]}
{"molecule": "CC1=C(C)[C@H]2C3=CC[C@@H]4[C@@]5(C)CC[C@H](O)C(C)(C)[C@@H]5CC[C@@]4(C)[C@]3(C)CC[C@@]2(C(=O)O)CC1", "values": [{"measurement": "fractional inhibitory concentration index (FICI)", "setting": "Staphylococcus aureus [4]", "value": 0.5}, {"measurement": "fractional inhibitory concentration index (FICI)", "setting": "Staphylococcus aureus [2]", "value": 0.38}]}
{"molecule": "COc1c(O)ccc2c1C(CC(C)=O)N(C)c1c-2ccc2cc3c(cc12)OCO3", "note": "(stereo not drawn)", "values": [{"measurement": "fractional inhibitory concentration index (FICI)", "setting": "Staphylococcus aureus [8]", "value": 0.375}, {"measurement": "fractional inhibitory concentration index (FICI)", "setting": "Staphylococcus aureus [9]", "value": 0.5}, {"measurement": "fractional inhibitory concentration index (FICI)", "setting": "Staphylococcus aureus [4]", "value": 0.5}]}
{"molecule": "COc1ccc2cc1Oc1ccc(cc1)C[C@H]1c3cc(c(OC)cc3CCN1C)Oc1c(O)c(OC)cc3c1[C@H]2N(C)CC3", "values": [{"measurement": "fractional inhibitory concentration index (FICI)", "setting": "Staphylococcus aureus [10]", "value": 0.25}]}
{"molecule": "COc1ccc2cc1Oc1ccc(cc1)C[C@H]1c3cc(c(OC)cc3CCN1C)Oc1c(OC)c(OC)cc3c1[C@H]2N(C)CC3", "values": [{"measurement": "fractional inhibitory concentration index (FICI)", "setting": "Staphylococcus aureus [10]", "value": 0.188}]}
{"molecule": "CNC1CC[C@@]2(C)C(=CC[C@H]3C4CCC5[C@H](C)NC[C@@]54CC[C@@H]32)C1", "note": "(stereo partly drawn)", "values": [{"measurement": "FIC", "setting": "Staphylococcus aureus [6]", "value": 0.116}, {"measurement": "fractional inhibitory concentration index (FICI)", "setting": "Staphylococcus aureus [7]", "value": 0.116}]}
{"molecule": "CC(C)=CCc1c(O)ccc(-c2oc3cc(O)cc(O)c3c(=O)c2CC=C(C)C)c1O", "values": [{"measurement": "fractional inhibitory concentration index (FICI)", "setting": "Staphylococcus aureus [11]", "value": 0.375}, {"measurement": "fractional inhibitory concentration index (FICI)", "setting": "Staphylococcus aureus [12]", "value": 0.5}]}
{"molecule": "C[C@H]1[C@H](OC(=O)CCC(=O)O)O[C@@H]2O[C@@]3(C)CC[C@H]4[C@H](C)CC[C@@H]1[C@@]24OO3", "note": "[ARTESUNATE]", "values": [{"measurement": "fractional inhibitory concentration index (FICI)", "setting": "Staphylococcus aureus [2]", "value": "<0.5"}]}
{"molecule": "COc1ccc2cc3[n+](cc2c1OC)CCc1cc2c(cc1-3)OCO2.[Cl-]", "note": "[BERBERINE CHLORIDE]", "values": [{"measurement": "fractional inhibitory concentration index (FICI)", "setting": "Staphylococcus aureus [13]", "value": 0.188}, {"measurement": "fractional inhibitory concentration index (FICI)", "setting": "Staphylococcus aureus [14]", "value": 0.375}, {"measurement": "fractional inhibitory concentration index (FICI)", "setting": "Staphylococcus aureus [15]", "value": 0.19}]}
{"molecule": "C=C(C)[C@@H]1CC[C@]2(C=O)CC[C@]3(C)[C@H](CC[C@@H]4[C@@]5(C)CC[C@H](O)C(C)(C)[C@@H]5CC[C@]43C)[C@@H]12", "note": "[BETULINALDEHYDE]", "values": [{"measurement": "fractional inhibitory concentration index (FICI)", "setting": "Staphylococcus aureus [16]", "value": 0.5}]}
{"molecule": "C=C(C)[C@@H]1CC[C@]2(C(=O)O)CC[C@]3(C)[C@H](CC[C@@H]4[C@@]5(C)CC[C@H](O)C(C)(C)[C@@H]5CC[C@]43C)[C@@H]12", "note": "[BETULINIC ACID]", "values": [{"measurement": "fractional inhibitory concentration index (FICI)", "setting": "Staphylococcus aureus [16]", "value": 0.5}]}
{"molecule": "CC(C)c1cc2c(c(O)c1O)[C@@]1(C(=O)O)CCCC(C)(C)[C@@H]1CC2", "note": "[CARNOSIC ACID]", "values": [{"measurement": "fractional inhibitory concentration index (FICI)", "setting": "Staphylococcus aureus [17]", "value": 0.5}]}
